# Reference: patent US20260115253A1, “VISCOUS COMPOSITION FOR TREATING ISCHEMIA” (National Cheng Kung University, priority 2017, published 2026)
# System: diabetic mice with lower limb ischemia
# Assay: Diabetic lower limb ischemia mouse model, blood flow by laser Doppler flowmetry
# Type: in vivo
# Conditions: 3.125 ng/g of VEGF in composition DIV
# Method: C57BL/6 male mice were sourced from the National Cheng Kung University (NCKU) Laboratory Animal Center or BioLASCO Taiwan Co., Ltd. They were housed in the animal facility of the NCKU Institute of Biotechnology for at least one week in order for them to adapt to the environment before experiments were performed.
# Since low blood sugar levels in mice would interfere with the results, mice with blood sugar levels within the range of 400 mg/dl to 550 mg/dl were used for the experiments, and minute amount of insulin might be applied to mice to avoid life-threatening high blood sugar levels. In order to avoid the possibility of self-regenerative neovascularization, the femoral artery and its peripheral blood vessels in the lower limbs of the mice were severed. The model minimized the possibility of blood vessel regeneration, which allowed a more accurate assessment of the angiogenic ability of testing drugs. […]
# At day 0, 1, 2, 3, 4, 5, 6, 7, 14, 21 and 28 post-surgery, the apparent appearance and blood flow of the lower limb in the mice were evaluated using the score system shown in Table 1 and laser Doppler flowmetry, respectively. ROI was calculated as the ratio of the blood flow signal of the left lower limb to that of the untreated right lower limb post-surgery, and the ratio in percentage was normalized based on the blood flow signal taken before the operation.
substance,measurement,value
VEGF,Blood flow compared with the control group,significantly increased the blood flow at day 14 and then on post surgery
